The source made the active and inactive calls.
How the values were obtained:
[1] = Shn3 3'UTR reporter inhibitors, dose response, cell-based, Clone20 osteoblasts, firefly luciferase, cherry-picked (AID 624132); type: functional;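 also: firefly luciferase luminescence from reporter carrying the Shn3 3'UTR in osteoblasts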
[2] = HepG2 cell cytotoxicity, dose response, cytotoxicity control for Shn3 inhibitor project, CellTiter-Glo, cherry-picked (AID 624134); type: functional, cell-based
[3] = control 3'UTR Renilla luciferase suppression, dose response, counter-screen for Shn3 inhibitor project, cell-based, Clone20-Shn3RL, cherry-picked (AID 624133); type: functional
[4] = target: T1, Polyadenylate-binding protein 1 (Homo sapiens, UniProt P11940); experiment: PABP1 MLLE–PAM2 interaction inhibitors, dose response, miRNA deadenylation inhibitor project, biochemical, fluorescence polarization, Cy5-PAM2 peptide, secondary (AID 602260); type: functional; details: read-out: IC50_Mean
T1 sequence (P11940 whole entry): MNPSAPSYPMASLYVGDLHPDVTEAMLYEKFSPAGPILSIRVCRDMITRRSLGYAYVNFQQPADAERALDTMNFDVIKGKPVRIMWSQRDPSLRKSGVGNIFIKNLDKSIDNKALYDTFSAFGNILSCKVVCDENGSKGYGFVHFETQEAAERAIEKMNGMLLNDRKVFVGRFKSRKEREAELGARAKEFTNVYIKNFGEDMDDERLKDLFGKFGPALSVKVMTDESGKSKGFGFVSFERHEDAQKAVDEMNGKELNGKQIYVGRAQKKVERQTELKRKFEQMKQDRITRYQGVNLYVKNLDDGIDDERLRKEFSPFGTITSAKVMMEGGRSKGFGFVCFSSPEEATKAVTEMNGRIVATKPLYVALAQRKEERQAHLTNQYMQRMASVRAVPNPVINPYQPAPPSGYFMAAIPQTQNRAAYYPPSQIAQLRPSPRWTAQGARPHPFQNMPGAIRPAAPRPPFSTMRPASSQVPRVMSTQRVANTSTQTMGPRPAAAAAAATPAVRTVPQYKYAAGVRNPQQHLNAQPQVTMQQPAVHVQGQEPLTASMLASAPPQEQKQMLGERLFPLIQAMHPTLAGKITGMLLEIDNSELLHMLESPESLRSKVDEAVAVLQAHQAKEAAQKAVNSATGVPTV

[5] = target: T1, Polyadenylate-binding protein 1; experiment: PABP1 MLLE–PAM2 binding inhibitor potency, dose response, biochemical, fluorescence polarization, FITC-PAM2 peptide (AID 602259); type: functional; details: read-out: IC50_Mean
INS1 = experiment: beta cell apoptosis inhibitors, cytokine rescue, dose response, luminescence, retest (AID 449756); type: functional, cell-based; details: Rattus norvegicus;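 also: cell death triggered by IL-1 beta plus TNF-alpha plus IFN-gamma mixture; protective hits raise ATP signal compared with cytokine alone wells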
Genome polyprotein = Genome polyprotein (dengue virus type 2, UniProt P29990); experiment: Dengue-2 NS5 methyltransferase inhibitors, primary screen, biochemical, confirmation dose response (AID 588689); type: functional
Genome polyprotein, sequence (P29990 2492-3391 limits assumed): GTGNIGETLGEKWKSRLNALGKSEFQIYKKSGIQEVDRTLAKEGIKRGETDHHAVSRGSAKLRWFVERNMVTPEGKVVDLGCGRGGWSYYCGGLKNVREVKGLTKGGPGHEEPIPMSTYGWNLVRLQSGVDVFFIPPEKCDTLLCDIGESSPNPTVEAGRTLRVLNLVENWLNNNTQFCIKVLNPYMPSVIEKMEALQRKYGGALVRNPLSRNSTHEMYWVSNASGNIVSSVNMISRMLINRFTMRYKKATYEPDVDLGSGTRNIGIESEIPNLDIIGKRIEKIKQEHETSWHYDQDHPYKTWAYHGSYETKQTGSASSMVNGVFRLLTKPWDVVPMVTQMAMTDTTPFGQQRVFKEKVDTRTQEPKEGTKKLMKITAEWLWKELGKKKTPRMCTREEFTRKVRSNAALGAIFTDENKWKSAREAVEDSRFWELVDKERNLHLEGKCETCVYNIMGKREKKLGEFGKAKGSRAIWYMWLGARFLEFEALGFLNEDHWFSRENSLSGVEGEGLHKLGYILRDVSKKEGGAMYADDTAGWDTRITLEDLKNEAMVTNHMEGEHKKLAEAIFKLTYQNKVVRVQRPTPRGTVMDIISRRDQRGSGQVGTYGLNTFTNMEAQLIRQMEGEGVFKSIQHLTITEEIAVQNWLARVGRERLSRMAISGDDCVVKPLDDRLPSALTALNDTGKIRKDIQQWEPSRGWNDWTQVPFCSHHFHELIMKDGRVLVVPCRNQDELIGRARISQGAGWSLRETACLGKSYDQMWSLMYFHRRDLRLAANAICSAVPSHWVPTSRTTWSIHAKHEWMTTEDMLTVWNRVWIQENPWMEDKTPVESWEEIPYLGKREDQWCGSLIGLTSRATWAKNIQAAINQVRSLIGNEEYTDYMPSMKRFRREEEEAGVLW

Leucine aminopeptidase = target: T2, Leucine aminopeptidase (Plasmodium falciparum 3D7, UniProt Q8IL11); experiment: P. falciparum M17LAP inhibitors, primary screen, biochemical, fluorogenic H-Leu-NHMec substrate, 1536-well (AID 1619); type: functional
T2 sequence (Q8IL11 whole entry): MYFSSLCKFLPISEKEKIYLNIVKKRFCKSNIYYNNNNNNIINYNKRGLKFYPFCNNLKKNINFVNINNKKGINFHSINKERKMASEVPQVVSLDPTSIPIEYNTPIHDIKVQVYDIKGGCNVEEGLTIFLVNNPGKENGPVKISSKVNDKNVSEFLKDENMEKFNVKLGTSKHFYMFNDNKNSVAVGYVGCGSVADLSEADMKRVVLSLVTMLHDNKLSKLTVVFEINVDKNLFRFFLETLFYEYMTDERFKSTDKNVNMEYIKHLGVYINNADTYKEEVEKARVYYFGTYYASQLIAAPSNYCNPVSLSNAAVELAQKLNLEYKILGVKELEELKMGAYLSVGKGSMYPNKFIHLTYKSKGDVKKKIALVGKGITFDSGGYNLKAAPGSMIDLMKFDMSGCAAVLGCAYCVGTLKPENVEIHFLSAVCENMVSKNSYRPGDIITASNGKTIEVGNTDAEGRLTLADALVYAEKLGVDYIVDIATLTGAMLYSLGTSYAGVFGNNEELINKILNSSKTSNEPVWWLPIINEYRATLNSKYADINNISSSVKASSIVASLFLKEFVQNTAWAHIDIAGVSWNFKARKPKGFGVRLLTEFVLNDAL

[6] = inhibitors of SNCA 5'UTR-driven reporter translation, confirmation, H4 neuroglioma cells, luminescence (AID 1988); type: functional, cell-based
[7] = Luminescence Cell-Based Dose Response HTS to Identify Inhibitors of 5'UTR Stem-Loop Driven Prion Protein mRNA Translation in H4 Neuroglioblastoma Cells. [Related pubchem assays: 1827 (Project Summary), 1813 (Primary HTS)]; type: functional
[8] = inhibitors of firefly luciferase expression or activity, dose response, H4 neuroglioma cells, luminescence (AID 1990); type: functional, cell-based
Escherichia coli = experiment: microbe, parasite or virus in culture
[9] = target: T3, Replicative DNA helicase DnaB (Mycobacterium tuberculosis, UniProt P9WMR3); experiment: DnaB intein splicing inhibitors, dose response, biochemical, cell-free fluorescence (AID 449749); type: functional
T3 sequence (P9WMR3 whole entry): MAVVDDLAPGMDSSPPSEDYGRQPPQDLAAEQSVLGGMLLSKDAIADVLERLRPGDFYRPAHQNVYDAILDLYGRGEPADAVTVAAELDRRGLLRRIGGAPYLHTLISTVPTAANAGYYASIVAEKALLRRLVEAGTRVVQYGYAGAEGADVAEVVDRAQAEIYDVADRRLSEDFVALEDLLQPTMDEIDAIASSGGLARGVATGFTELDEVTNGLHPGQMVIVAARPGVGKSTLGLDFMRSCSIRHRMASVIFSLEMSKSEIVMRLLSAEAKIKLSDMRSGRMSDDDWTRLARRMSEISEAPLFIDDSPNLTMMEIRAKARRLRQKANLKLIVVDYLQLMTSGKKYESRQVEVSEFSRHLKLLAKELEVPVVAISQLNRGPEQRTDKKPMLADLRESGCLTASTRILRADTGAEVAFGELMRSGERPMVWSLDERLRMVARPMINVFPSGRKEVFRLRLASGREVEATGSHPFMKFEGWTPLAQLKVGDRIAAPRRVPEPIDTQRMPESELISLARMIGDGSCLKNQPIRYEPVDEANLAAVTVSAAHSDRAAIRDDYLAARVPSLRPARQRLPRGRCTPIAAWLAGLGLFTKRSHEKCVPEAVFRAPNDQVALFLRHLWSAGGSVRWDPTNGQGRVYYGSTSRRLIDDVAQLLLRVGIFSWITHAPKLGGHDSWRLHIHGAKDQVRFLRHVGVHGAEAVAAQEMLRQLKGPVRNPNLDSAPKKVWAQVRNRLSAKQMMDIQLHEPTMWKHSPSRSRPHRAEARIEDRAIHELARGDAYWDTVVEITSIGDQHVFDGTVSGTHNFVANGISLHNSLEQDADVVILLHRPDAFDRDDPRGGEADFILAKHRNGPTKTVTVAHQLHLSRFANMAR

[10] = target: T4, Heat shock factor protein 1 (Mus musculus, UniProt P38532); experiment: HSF1 potentiators in luciferase reporter cells, confirmation, cell-based, NIH3T3, luminescence, dose retest (AID 435004); type: functional;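 also: stress induced by proteasome inhibitor MG132 added 30 min after compound; luciferase reporter driven by HSF1 response element in NIH3T3 cells; actives raise luminescence as potentiators of the MG132 stress response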
T4 sequence (P38532 whole entry): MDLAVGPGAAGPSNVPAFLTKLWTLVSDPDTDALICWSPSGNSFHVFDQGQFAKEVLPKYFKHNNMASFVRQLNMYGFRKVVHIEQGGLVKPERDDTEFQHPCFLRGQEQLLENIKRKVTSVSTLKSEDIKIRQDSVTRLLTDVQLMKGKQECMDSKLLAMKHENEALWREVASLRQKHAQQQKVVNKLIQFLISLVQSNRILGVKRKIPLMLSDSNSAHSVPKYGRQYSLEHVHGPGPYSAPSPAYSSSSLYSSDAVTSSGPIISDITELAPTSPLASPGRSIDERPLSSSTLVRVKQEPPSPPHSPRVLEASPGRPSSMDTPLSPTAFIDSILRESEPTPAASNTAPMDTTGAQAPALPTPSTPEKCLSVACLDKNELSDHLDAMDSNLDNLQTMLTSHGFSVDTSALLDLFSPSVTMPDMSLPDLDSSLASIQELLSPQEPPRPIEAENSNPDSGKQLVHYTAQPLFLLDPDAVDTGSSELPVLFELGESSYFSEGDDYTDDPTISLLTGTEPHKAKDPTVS

[11] = target: G-protein coupled receptor 55 (Homo sapiens, UniProt Q9Y2T6); experiment: GPR55 agonists via beta-arrestin recruitment, primary screen, imaging, U2OS cells, beta-arrestin-GFP redistribution (AID 1961); type: functional
G-protein coupled receptor 55, sequence (Q9Y2T6 whole entry): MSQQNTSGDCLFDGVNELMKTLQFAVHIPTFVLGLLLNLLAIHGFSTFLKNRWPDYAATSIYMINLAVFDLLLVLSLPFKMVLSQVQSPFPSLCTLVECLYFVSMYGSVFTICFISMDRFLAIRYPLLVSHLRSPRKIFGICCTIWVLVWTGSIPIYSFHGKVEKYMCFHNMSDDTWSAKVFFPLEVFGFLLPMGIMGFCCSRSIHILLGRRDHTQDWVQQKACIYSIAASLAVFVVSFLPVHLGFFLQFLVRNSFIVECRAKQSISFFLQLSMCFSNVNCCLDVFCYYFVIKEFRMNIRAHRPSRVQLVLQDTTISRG

Protein RecA = target: T5, Protein RecA (Mycobacterium tuberculosis, UniProt P9WHJ3); experiment: Fluorescence Cell-Free Homogeneous Dose Retest to Identify Inhibitors of RecA-Intein Splicing Activity. [Related pubchem assays (depositor defined):AID2097, AID2223, AID489010, AID492950]; type: functional
T5 sequence (P9WHJ3 whole entry): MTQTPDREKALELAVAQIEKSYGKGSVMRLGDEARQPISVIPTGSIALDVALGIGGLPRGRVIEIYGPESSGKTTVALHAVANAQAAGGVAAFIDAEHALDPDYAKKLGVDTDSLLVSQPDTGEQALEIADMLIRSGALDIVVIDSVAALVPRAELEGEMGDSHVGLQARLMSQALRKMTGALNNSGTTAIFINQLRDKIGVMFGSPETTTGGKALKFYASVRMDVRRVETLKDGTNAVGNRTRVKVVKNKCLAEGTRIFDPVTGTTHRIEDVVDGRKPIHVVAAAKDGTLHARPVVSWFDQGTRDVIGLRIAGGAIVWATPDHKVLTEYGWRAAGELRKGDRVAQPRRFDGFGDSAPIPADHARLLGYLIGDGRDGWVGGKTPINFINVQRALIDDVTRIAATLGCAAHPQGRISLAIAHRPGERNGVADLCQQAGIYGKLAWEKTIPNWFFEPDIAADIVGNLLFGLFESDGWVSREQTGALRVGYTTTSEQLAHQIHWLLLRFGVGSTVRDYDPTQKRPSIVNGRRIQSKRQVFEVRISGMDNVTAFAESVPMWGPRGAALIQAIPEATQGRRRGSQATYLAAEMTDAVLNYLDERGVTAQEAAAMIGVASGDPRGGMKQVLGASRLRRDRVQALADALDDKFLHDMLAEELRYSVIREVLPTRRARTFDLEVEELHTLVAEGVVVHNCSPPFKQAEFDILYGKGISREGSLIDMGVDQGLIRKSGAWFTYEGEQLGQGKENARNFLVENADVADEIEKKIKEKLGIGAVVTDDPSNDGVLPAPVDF

Cytochrome P450 2C19 = Cytochrome P450 2C19 (Homo sapiens, UniProt P33261); experiment: Cytochrome panel assay with activity outcomes. Panel member name: p450-cyp2c19 Compounds with AC50 equal or less than 10 uM are considered active; type: functional; details: read-out: AC50
Cytochrome P450 2C19, sequence (P33261 whole entry): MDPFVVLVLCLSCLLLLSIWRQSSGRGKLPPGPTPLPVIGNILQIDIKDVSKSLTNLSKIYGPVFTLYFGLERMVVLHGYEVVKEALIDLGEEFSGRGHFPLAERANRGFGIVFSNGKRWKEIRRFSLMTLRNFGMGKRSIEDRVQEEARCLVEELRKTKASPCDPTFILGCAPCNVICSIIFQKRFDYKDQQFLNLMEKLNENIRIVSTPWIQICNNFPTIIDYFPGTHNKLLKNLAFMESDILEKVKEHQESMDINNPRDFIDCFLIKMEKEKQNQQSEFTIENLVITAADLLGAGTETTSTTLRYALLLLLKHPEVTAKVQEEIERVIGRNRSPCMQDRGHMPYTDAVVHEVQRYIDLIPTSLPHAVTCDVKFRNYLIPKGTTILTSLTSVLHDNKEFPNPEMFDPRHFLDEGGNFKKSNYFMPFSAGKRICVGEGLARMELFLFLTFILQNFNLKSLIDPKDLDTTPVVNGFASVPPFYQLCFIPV

[12] = target: DNA (cytosine-5)-methyltransferase 1 (Homo sapiens, UniProt P26358); experiment: DNMT1 methyltransferase inhibitors, confirmation, biochemical, fluorescent molecular beacon (AID 602386); type: functional
DNA (cytosine-5)-methyltransferase 1, sequence (P26358 whole entry): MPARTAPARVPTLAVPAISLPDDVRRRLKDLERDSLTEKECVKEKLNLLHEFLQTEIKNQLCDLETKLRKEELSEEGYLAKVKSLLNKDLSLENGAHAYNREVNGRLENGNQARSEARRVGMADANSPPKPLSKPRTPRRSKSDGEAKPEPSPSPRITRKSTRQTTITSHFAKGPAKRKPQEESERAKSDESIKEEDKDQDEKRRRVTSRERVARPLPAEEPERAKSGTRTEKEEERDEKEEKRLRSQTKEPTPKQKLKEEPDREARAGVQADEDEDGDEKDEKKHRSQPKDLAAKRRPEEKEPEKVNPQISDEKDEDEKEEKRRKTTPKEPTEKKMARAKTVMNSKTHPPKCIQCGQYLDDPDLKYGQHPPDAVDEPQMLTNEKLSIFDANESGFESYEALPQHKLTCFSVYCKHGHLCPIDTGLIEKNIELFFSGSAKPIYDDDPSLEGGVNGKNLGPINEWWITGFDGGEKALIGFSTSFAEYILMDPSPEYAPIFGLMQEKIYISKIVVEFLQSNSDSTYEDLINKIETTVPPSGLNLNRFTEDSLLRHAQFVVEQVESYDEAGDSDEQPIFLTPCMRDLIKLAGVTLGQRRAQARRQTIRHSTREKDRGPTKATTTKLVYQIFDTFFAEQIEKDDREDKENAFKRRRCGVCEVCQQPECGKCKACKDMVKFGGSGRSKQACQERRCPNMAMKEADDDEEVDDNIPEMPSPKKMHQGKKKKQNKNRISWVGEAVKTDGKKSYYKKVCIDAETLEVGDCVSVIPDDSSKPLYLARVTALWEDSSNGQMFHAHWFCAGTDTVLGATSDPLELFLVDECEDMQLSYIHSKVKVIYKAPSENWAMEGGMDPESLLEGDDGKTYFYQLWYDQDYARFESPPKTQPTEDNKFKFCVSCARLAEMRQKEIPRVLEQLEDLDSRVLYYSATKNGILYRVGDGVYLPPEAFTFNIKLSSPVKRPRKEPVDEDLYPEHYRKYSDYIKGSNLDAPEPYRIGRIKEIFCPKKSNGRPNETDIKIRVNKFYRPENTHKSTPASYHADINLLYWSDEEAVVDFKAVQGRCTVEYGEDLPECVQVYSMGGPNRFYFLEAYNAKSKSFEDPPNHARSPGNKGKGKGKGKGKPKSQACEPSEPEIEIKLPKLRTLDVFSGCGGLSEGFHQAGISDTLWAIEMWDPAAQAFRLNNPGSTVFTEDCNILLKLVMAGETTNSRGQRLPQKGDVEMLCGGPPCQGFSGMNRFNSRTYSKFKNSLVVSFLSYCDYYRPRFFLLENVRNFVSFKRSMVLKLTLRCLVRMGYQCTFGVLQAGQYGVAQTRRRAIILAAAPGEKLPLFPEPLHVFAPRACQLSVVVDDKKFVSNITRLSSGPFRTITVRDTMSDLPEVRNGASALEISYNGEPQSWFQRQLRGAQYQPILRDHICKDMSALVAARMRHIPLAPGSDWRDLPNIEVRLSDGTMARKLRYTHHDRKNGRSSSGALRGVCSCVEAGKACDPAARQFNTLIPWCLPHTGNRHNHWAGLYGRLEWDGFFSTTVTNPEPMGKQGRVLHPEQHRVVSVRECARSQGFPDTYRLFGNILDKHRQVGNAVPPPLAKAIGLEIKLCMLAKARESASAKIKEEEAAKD

SMILES: O=C(Nc1cccc(Cl)c1Cl)C1CC(=O)N(c2ccc(Br)cc2)C1 (stereo not drawn)
- AC50 [1]: 8.23 µM (active)
- AC50 [2]: 38.4 µM (active)
- AC50 [3]: 9.56 µM (active)

SMILES: COc1ccc(NC(=O)c2ccco2)cn1
- IC50 [4]: > 66 µM (inactive)
- IC50 [5]: 34.1 µM (inactive)

SMILES: Cc1ccc(-n2ncc3c2CCCC3NC(=O)c2ocnc2C)cc1C (stereo not drawn)
- AC50 [1]: 1.29 µM (active)
- AC50 (INS1): 3.69 µM (active)
- AC50 [2]: 0.594 µM (active)
- AC50 [3]: 3.35 µM (active)

SMILES: CCCCCCSc1nc(O)c(C2OC(=O)c3c2ccc(OC)c3OC)c(=O)n1-c1ccccc1 (stereo not drawn)
- IC50 (Genome polyprotein): 30.2 µM (active)
- IC50 (Leucine aminopeptidase): 4.82 µM (active)

SMILES: CC(C)(C)NC(=O)CSc1nc2ccc(NC(=O)CSc3nnnn3Cc3ccccc3)cc2s1
- AC50 [1]: 3.26 µM (active)
- AC50 [2]: 53 µM (active)
- AC50 [3]: 6.81 µM (active)

SMILES: CCOc1cc(C(=O)CSc2nnc(CNc3ccc(Cl)cc3)o2)ccc1NC(=O)CC
- AC50 [1]: 7.73 µM (active)
- EC50 [6]: 7.28 µM (active)
- EC50 [7]: 23 µM (active)
- AC50 [2]: 29.5 µM (active)
- EC50 [8]: > 120 µM (not active)
- AC50 [3]: 36.5 µM (active)

SMILES: c1ccc(-n2c(SCC3CCCCO3)nnc2-c2cccs2)cc1 (stereo not drawn)
- AC50 (Escherichia coli): 24.4 µM (active)

SMILES: COc1ccc2nc3cc(Cl)ccc3c(Nc3cc(C(C)C)c(O)cc3C)c2c1
- AC50 [9]: > 380 µM (inactive)
- EC50 [10]: 154 µM (active)
- EC50 [11]: 1 µM (active)
- EC50 (Protein RecA): 0.318 µM (active)

SMILES: CCCCN(CCCC)C(=O)c1cn(CC)c2cc(N3CCN(C)CC3)c(F)cc2c1=O
- AC50 (Escherichia coli): 1.67 µM (active)

SMILES: O=C(O)CSC1CC(=O)N(c2ccc(Cl)c(Cl)c2)C1=O (stereo not drawn)
- IC50 [4]: > 66 µM (inactive)
- IC50 [5]: > 66 µM (inactive)

SMILES: CCCCc1c(O)n(-c2ccccc2)c(SCCN(C)C)nc1=O
- IC50 [4]: > 66 µM (inactive)
- AC50 (Cytochrome P450 2C19): 6.31 µM (inconclusive)
- IC50 [5]: > 66 µM (inactive)

SMILES: O=C(CCc1nc(O)c2ccccc2n1)OCC(=O)c1cccc(Cl)c1
- AC50 (Escherichia coli): 41.4 µM (active)

SMILES: CCOC(=O)c1nn(-c2ccc(F)cc2)c(=O)cc1OCC(=O)Nc1ccc(OCC)cc1
- IC50 [12]: > 99 µM (inactive)

SMILES: COc1ccc(S(=O)(=O)CC(=O)c2cc3cccc(C)c3oc2=O)cc1
- IC50 (Genome polyprotein): 78.1 µM (active)

SMILES: CC(C)(CNC(=O)c1ccc(Cl)c(S(=O)(=O)N2CCc3ccccc3C2)c1)N1CCOCC1
- AC50 [1]: 10.5 µM (active)
- AC50 [2]: 2.14 µM (active)

SMILES: O=C(CCSc1nnc(-c2ccco2)o1)N1CCOCC1
- AC50 (Escherichia coli): 119 µM (active)

SMILES: COc1ccc(CC(N)c2csc(NC(=O)Nc3ccc(C(C)C)cc3)n2)cc1 (stereo not drawn)
- AC50 [1]: 5.16 µM (active)
- AC50 [2]: 10.9 µM (active)
- AC50 [3]: 11.9 µM (active)

SMILES: Cc1[nH]n(-c2ccccc2)c(=O)c1C(c1cccc([N+](=O)[O-])c1)c1c(C)[nH]n(-c2ccccc2)c1=O
- IC50 (Genome polyprotein): 52.9 µM (active)
- AC50 [9]: 3.28 µM (active)
- EC50 (Protein RecA): 0.805 µM (active)
